Assays:
Etoposide = compound: COc1cc([C@@H]2c3cc4c(cc3[C@@H](O[C@@H]3O[C@@H]5CO[C@@H](C)O[C@H]5[C@H](O)[C@H]3O)[C@H]3COC(=O)[C@H]23)OCO4)cc(OC)c1O [Etoposide]; conditions: max 10 µM
In short: (§1)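 Cancer cell lines were plated in 1536-well plates in 7.5 μl of DMEM/F12 or RPMI with 10% FBS and kept 24 hours at 37°C and 5% CO2 before 72 hours of dosing, with final DMSO typically 0.2%. CellTiter-Glo 2.0 luminescence measured viability, scaled between blank-well and DMSO-well means. Dose responses were fitted to a two-parameter logistic curve with a non-linear mixed effects model. This fit gives the single-agent IC50.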

Carboplatin = compound: C1CC(C1)(C(=O)[O-])C(=O)[O-].N.N.[Pt+2] [Carboplatin]; conditions: max 10 µM
In short: as §1

MK-2206 = compound: NC1(c2ccc(-c3nc4ccn5c(=O)[nH]nc5c4cc3-c3ccccc3)cc2)CCC1 [MK-2206]; conditions: max 10 µM
In short: as §1

Selumetinib = compound: Cn1cnc2c(F)c(Nc3ccc(Br)cc3Cl)c(C(=O)NOCCO)cc21 [Selumetinib]; conditions: max 10 µM
In short: as §1

AZD2811 = compound: CCN(CCO)CCCOc1ccc2c(Nc3cc(CC(=O)Nc4cccc(F)c4)[nH]n3)ncnc2c1 [AZD2811]; conditions: max 1 µM
In short: as §1

Venetoclax = compound: CC1(C)CCC(CN2CCN(c3ccc(C(=O)NS(=O)(=O)c4ccc(NCC5CCOCC5)c([N+](=O)[O-])c4)c(Oc4cnc5[nH]ccc5c4)c3)CC2)=C(c2ccc(Cl)cc2)C1 [Venetoclax]; conditions: max 1 µM
In short: as §1

Prexasertib = compound: COc1cccc(OCCCN)c1-c1cc(Nc2cnc(C#N)cn2)n[nH]1 [Prexasertib]; conditions: max 1 µM
In short: as §1

AZD4320 = compound: CN(CC[C@H](CSC1=CC=CC=C1)NC2=C(C=C(C=C2)S(=O)(=O)NC(=O)C3=CC=C(C=C3)N4CCC(CC4)[C@H](C5=CC=CC=C5C6=CC=C(C=C6)Cl)O)S(=O)(=O)C(F)(F)F)CCO [AZD4320]; conditions: max 1 µM
In short: as §1

AZD5991 = compound: Cc1c2c(nn1C)CSCc1cc(n(C)n1)CSc1cc(c3ccccc3c1)OCCCc1c(C(=O)O)n(C)c3c-2c(Cl)ccc13 [AZD5991]; conditions: max 1 µM
In short: as §1

AZD8186 = compound: C[C@@H](Nc1cc(F)cc(F)c1)c1cc(C(=O)N(C)C)cc2c(=O)cc(N3CCOCC3)oc12 [AZD8186]; conditions: max 10 µM
In short: as §1

Dasatinib = compound: CC1=C(C(=CC=C1)Cl)NC(=O)C2=CN=C(S2)NC3=CC(=NC(=N3)C)N4CCN(CC4)CCO [Dasatinib]; conditions: max 2 µM
In short: as §1

Taselisib = compound: Cc1nc(-c2cn3c(n2)-c2ccc(-c4cnn(C(C)(C)C(N)=O)c4)cc2OCC3)n(C(C)C)n1 [Taselisib]; conditions: max 10 µM
In short: as §1

AZD1775 = compound: C=CCn1c(=O)c2cnc(Nc3ccc(N4CCN(C)CC4)cc3)nc2n1-c1cccc(C(C)(C)O)n1 [AZD1775]; conditions: max 3 µM
In short: as §1

AZD1390 = compound: CC(C)n1c(=O)n(C)c2cnc3cc(F)c(-c4ccc(OCCCN5CCCCC5)nc4)cc3c21 [AZD1390]; conditions: max 0.3 µM
In short: as §1

SRA737 = compound: N#Cc1cnc(Nc2cc(NC[C@H]3CNCCO3)c(C(F)(F)F)cn2)cn1 [SRA737]; conditions: max 10 µM
In short: as §1

AZD5363 = compound: C1CN(CCC1(C(=O)N[C@@H](CCO)C2=CC=C(C=C2)Cl)N)C3=NC=NC4=C3C=CN4 [AZD5363]; conditions: max 10 µM
In short: as §1

Doxorubicin = compound: COc1cccc2c1C(=O)c1c(O)c3c(c(O)c1C2=O)C[C@@](O)(C(=O)CO)C[C@@H]3O[C@H]1C[C@H](N)[C@H](O)[C@H](C)O1 [Doxorubicin]; conditions: max 1 µM
In short: as §1

Gefitinib = compound: COc1cc2ncnc(Nc3ccc(F)c(Cl)c3)c2cc1OCCCN1CCOCC1 [Gefitinib]; conditions: max 10 µM
In short: as §1

Alisertib = compound: COc1cc(Nc2ncc3c(n2)-c2ccc(Cl)cc2C(c2c(F)cccc2OC)=NC3)ccc1C(=O)O [Alisertib]; conditions: max 10 µM
In short: as §1

SG3199 = compound: CC1=CN2[C@@H](C1)C=NC3=CC(=C(C=C3C2=O)OC)OCCCCCOC4=C(C=C5C(=C4)N=C[C@@H]6CC(=CN6C5=O)C)OC [SG3199]; conditions: max 0.001 µM
In short: as §1

Savolitinib = compound: C[C@@H](c1ccc2nccn2c1)n1nnc2ncc(-c3cnn(C)c3)nc21 [Savolitinib]; conditions: max 1 µM
In short: as §1

Gemcitabine = compound: Nc1ccn([C@@H]2O[C@H](CO)[C@@H](O)C2(F)F)c(=O)n1 [Gemcitabine]; conditions: max 0.3 µM
In short: as §1

Lapatinib = compound: CS(=O)(=O)CCNCc1ccc(-c2ccc3ncnc(Nc4ccc(OCc5cccc(F)c5)c(Cl)c4)c3c2)o1 [Lapatinib]; conditions: max 10 µM
In short: as §1

5-Fluorouracil = compound: O=c1[nH]cc(F)c(=O)[nH]1 [5-Fluorouracil]; conditions: max 20 µM
In short: as §1

SN-38 = compound: CCc1c2c(nc3ccc(O)cc13)-c1cc3c(c(=O)n1C2)COC(=O)[C@]3(O)CC [SN-38]; conditions: max 0.3 µM
In short: as §1

AZD0156 = compound: CN(C)CCCOc1ccc(-c2ccc3ncc4c(c3c2)n(C2CCOCC2)c(=O)n4C)cn1 [AZD0156]; conditions: max 3 µM
In short: as §1

AZD6738 = compound: C[C@@H]1COCCN1C2=NC(=NC(=C2)C3(CC3)[S@](=N)(=O)C)C4=C5C=CNC5=NC=C4 [AZD6738]; conditions: max 10 µM
In short: as §1

Palbociclib = compound: CC(=O)c1c(C)c2cnc(Nc3ccc(N4CCNCC4)cn3)nc2n(C2CCCC2)c1=O [Palbociclib]; conditions: max 10 µM
In short: as §1

Crizotinib = compound: C[C@@H](Oc1cc(-c2cnn(C3CCNCC3)c2)cnc1N)c1c(Cl)ccc(F)c1Cl [Crizotinib]; conditions: max 10 µM
In short: as §1

Paclitaxel = compound: CC(=O)O[C@H]1C(=O)[C@@]2(C)[C@H]([C@H](OC(=O)c3ccccc3)[C@]3(O)C[C@H](OC(=O)[C@H](O)[C@@H](NC(=O)c4ccccc4)c4ccccc4)C(C)=C1C3(C)C)[C@]1(OC(C)=O)CO[C@@H]1C[C@@H]2O [Paclitaxel]; conditions: max 3 µM
In short: as §1

AZD5153 = compound: COc1nnc2ccc(N3CCC(c4ccc(OCCN5CCN(C)C(=O)[C@H]5C)cc4)CC3)nn12 [AZD5153]; conditions: max 1 µM
In short: as §1

Olaparib = compound: O=C(c1cc(Cc2n[nH]c(=O)c3ccccc23)ccc1F)N1CCN(C(=O)C2CC2)CC1 [Olaparib]; conditions: max 10 µM
In short: as §1

AZD7648 = compound: Cc1cc2ncnn2cc1Nc1ncc2c(n1)n(C1CCOCC1)c(=O)n2C [AZD7648]; conditions: max 10 µM
In short: as §1

[1] = compound: O=C(Nc1ccc2[nH]nc(-c3ccncc3)c2c1)[C@@H]1CCN(CC(=O)N2CCN(c3ccc(-c4ncccn4)cc3)CC2)C1; conditions: max 5 µM
In short: as §1

Trametinib = compound: CC(=O)Nc1cccc(-n2c(=O)n(C3CC3)c(=O)c3c(Nc4ccc(I)cc4F)n(C)c(=O)c(C)c32)c1 [Trametinib]; conditions: max 1 µM
In short: as §1

Row | Cell Line | IC50, cell viability 72 h (Etoposide) | IC50, cell viability 72 h (Carboplatin) | IC50, cell viability 72 h (MK-2206) | IC50, cell viability 72 h (Selumetinib) | IC50, cell viability 72 h (AZD2811) | IC50, cell viability 72 h (Venetoclax) | IC50, cell viability 72 h (Prexasertib) | IC50, cell viability 72 h (AZD4320) | IC50, cell viability 72 h (AZD5991) | IC50, cell viability 72 h (AZD8186) | IC50, cell viability 72 h (Dasatinib) | IC50, cell viability 72 h (Taselisib) | IC50, cell viability 72 h (AZD1775) | IC50, cell viability 72 h (AZD1390) | IC50, cell viability 72 h (SRA737) | IC50, cell viability 72 h (AZD5363) | IC50, cell viability 72 h (Doxorubicin) | IC50, cell viability 72 h (Gefitinib) | IC50, cell viability 72 h (Alisertib) | IC50, cell viability 72 h (SG3199) | IC50, cell viability 72 h (Savolitinib) | IC50, cell viability 72 h (Gemcitabine) | IC50, cell viability 72 h (Lapatinib) | IC50, cell viability 72 h (5-Fluorouracil) | IC50, cell viability 72 h (SN-38) | IC50, cell viability 72 h (AZD0156) | IC50, cell viability 72 h (AZD6738) | IC50, cell viability 72 h (Palbociclib) | IC50, cell viability 72 h (Crizotinib) | IC50, cell viability 72 h (Paclitaxel) | IC50, cell viability 72 h (AZD5153) | IC50, cell viability 72 h (Olaparib) | IC50, cell viability 72 h (AZD7648) | IC50, cell viability 72 h [1] | IC50, cell viability 72 h (Trametinib)
1 | SW13 (Other Solid Carcinomas) | 4890 nM | > 10000 nM | > 10000 nM | > 10000 nM | > 1000 nM | > 1000 nM | > 1000 nM | > 1000 nM | 212 nM | > 10000 nM | 1250 nM | > 10000 nM | > 3000 nM | > 300 nM | > 10000 nM | > 10000 nM | 394 nM | > 10000 nM | > 10000 nM | > 1 nM | > 1000 nM | 27.1 nM | 4460 nM | > 20000 nM | 5.19 nM | > 3000 nM | > 10000 nM | > 10000 nM | > 10000 nM | 6.09 nM | > 1000 nM | > 10000 nM | > 10000 nM | > 5000 nM | 804 nM
2 | TGW (Neuroblastoma) | > 10000 nM | > 10000 nM | > 10000 nM | > 10000 nM | > 1000 nM | > 1000 nM | 27.7 nM | 127 nM | > 1000 nM | > 10000 nM | > 2000 nM | > 10000 nM | 571 nM | > 300 nM | > 10000 nM | > 10000 nM | 521 nM | > 10000 nM | 162 nM | > 1 nM | > 1000 nM | 159 nM | > 10000 nM | > 20000 nM | 50.5 nM | > 3000 nM | 7370 nM | > 10000 nM | 6840 nM | 108 nM | > 1000 nM | > 10000 nM | > 10000 nM | > 5000 nM | > 1000 nM
3 | TK10 (Kidney Carcinoma) | > 10000 nM | > 10000 nM | > 10000 nM | > 10000 nM | > 1000 nM | > 1000 nM | 159 nM | > 1000 nM | > 1000 nM | > 10000 nM | 437 nM | 5340 nM | 2870 nM | > 300 nM | > 10000 nM | > 10000 nM | > 1000 nM | 9990 nM | > 10000 nM | > 1 nM | > 1000 nM | > 300 nM | 8300 nM | > 20000 nM | > 300 nM | > 3000 nM | > 10000 nM | > 10000 nM | > 10000 nM | 715 nM | 903 nM | > 10000 nM | > 10000 nM | > 5000 nM | > 1000 nM
4 | UACC-62 (Melanoma) | > 10000 nM | > 10000 nM | > 10000 nM | 284 nM | > 1000 nM | > 1000 nM | 136 nM | > 1000 nM | 282 nM | 3990 nM | > 2000 nM | 4610 nM | > 3000 nM | > 300 nM | > 10000 nM | > 10000 nM | 373 nM | > 10000 nM | > 10000 nM | > 1 nM | > 1000 nM | > 300 nM | > 10000 nM | > 20000 nM | 15.6 nM | > 3000 nM | > 10000 nM | > 10000 nM | > 10000 nM | 598 nM | > 1000 nM | > 10000 nM | > 10000 nM | 84.6 nM | 4.06 nM
5 | YH-13 (Glioblastoma) | > 10000 nM | > 10000 nM | > 10000 nM | > 10000 nM | > 1000 nM | > 1000 nM | 76.3 nM | > 1000 nM | > 1000 nM | 2850 nM | 837 nM | 2990 nM | > 3000 nM | > 300 nM | > 10000 nM | > 10000 nM | > 1000 nM | > 10000 nM | > 10000 nM | > 1 nM | > 1000 nM | 114 nM | > 10000 nM | > 20000 nM | 159 nM | > 3000 nM | > 10000 nM | > 10000 nM | > 10000 nM | 3.82 nM | 534 nM | > 10000 nM | > 10000 nM | > 5000 nM | > 1000 nM
